Consider one compound from article PMC3412845, “Waking Action of Ursodeoxycholic Acid (UDCA) Involves Histamine and GABAA Receptor Block” (PLoS ONE, 2012).

Data set [1] has as its target T1, α1β2γ2L GABAA receptors (WT) (UniProt P22723+P62813+P63138).
T1 construct: expressed in transfected cells; host or cells: HEK293
The data set can be described thus: Patch-clamp of recombinant wild-type α1β2γ2L GABAAR in HEK293 cells. Format: cell-based, rat α1, rat β2, mouse γ2L. Here is the method: (§1) HEK 293 cells were obtained from DSM (Deutsche Sammlung von Mikroorganismen und Zellkulturen GmbH, DSM, Braunschweig). They were grown and maintained according to published standard protocols. Briefly, cells were grown in minimal essential medium supplemented with 10% fetal bovine serum, 100units/ml penicillin and streptomycin and 2 mM L-glutamine and splitted once per week. Semiconfluent cells were transfected on the third day after splitting with the help of Lipofectamine 2000 (Invitrogen), recordings were done 48–72 hrs after transfection.
(§2) The GABAAR subunit cDNAs, generously donated by G.Gisselmann (rat α1, mouse γ2L, rat β1, β2 and human β3 [26]) and J.H. Steinbach (rat α1V256S [28] and rat α1Q241L [44]), were subcloned into pcDNA3 (Invitrogen, Karlsruhe, Germany) and applied in a ratio 1∶1∶1 for the α1βxγ2L receptor and 1∶1 for α1β3 or β3γ2L receptors. […] For each receptor type patch clamp recordings were obtained from at least three separate transfections. Whole-cell patch clamp recordings were done in a similar extracellular solution as for the native cells (see above) except that the concentration of MgCl2 was reduced to 1.2 mM. Intracellular electrodes contained 140 mM CsCl (instead of KCl), pH adjusted with CsOH. The voltage was held at −40 mV.
(In general: In patch-clamp work, channel activity is measured electrically.)

Data set [2] deals with T2, α1V256Sβ2γ2L GABAA receptors (UniProt P22723+P62813+P63138, V283S).
T2 construct: expressed in transfected cells; host or cells: HEK293
The data set can be described thus: Patch-clamp of mutant α1V256Sβ2γ2L GABAAR in HEK293 cells. Format: cell-based, rat α1V256S, rat β2, mouse γ2L. Here is the method: as §1, §2

The test system of another data set is HDC+/+ mice. The data set can be described thus: Polygraphic (EEG/EMG) sleep-wake recording in wild type mice. Format: in vivo, mouse. How it is done:
Animal experiments were conducted according to the Animal Protection Law of the Federal Republic of Germany and the local guidelines (Bezirksregierung Duesseldorf) and were in accordance with the European Communities Council directive regarding care and use of animals for experimental procedures (86/609/EEC). The general protocol of sleep-wake recording and experiment in the mouse was approved by the ethic committee of Claude Bernard University of Lyon. All efforts were made to minimize the number of animals and their suffering. At the age of 12 weeks and with a body weight of 30±2 g HDC wild type and knockout mice used for EEG and sleep-wake studies were chronically implanted, under deep gas anesthesia using isoflurane (2%, 200 ml/min) and a TEM anesthesia system (Bordeaux, France), with six cortical electrodes (gold-plated tinned copper wire, Ø = 0.4 mm, Filotex, Draveil, France) and three neck muscle electrodes (fluorocarbon-coated gold-plated stainless steel wire, Ø = 0.03 mm, Cooner Wire Chatworth, CA, U.S.A.) to record the electroencephalogram (EEG) and electromyogram (EMG) and to monitor the sleep-wake cycle. Finally, the electrode assembly was anchored and fixed to the skull with Super-Bond (Sun Medical Co., Shiga, Japan) and dental cement. This implantation allows stable and long-lasting polygraphic recordings.
After surgery, the animals were housed individually in barrels placed in an insulated sound-proof recording room maintained at an ambient temperature of 22±1°C and on a 12 h light/dark cycle (lights-on at 7 a.m.), standard food and water being available ad libitum. After a 7-days recovery period, mice were habituated to the recording cable for 7 days before polygraphic recordings were started. Cortical EEG (contralateral frontoparietal leads) and EMG signals were amplified, digitized with a resolution of 256 and 128 Hz, respectively, and computed on a CED 1401 Plus (Cambridge, UK). Using a Spike2 script and with the assistance of spectral analysis using the fast Fourier transform, polygraphic records were visually scored by 30-sec epochs for wakefulness (W), slow wave sleep (SWS), and paradoxical sleep (PS) according to previously described criteria validated for mice.
Animals were subjected to 12 h sleep-wake recordings following administration of URSOFALK (clinically used UDCA, 32 mg/kg) through the oral route (per os) at 10 a.m. (during the sleepy period) or at 7 p.m. (during the active period). Each animal received twice single dose of UDCA and twice equal volume of vehicle. There was an interval of 7 days between any two administrations. UDCA or vehicle was applied at random. The waking, slow wave sleep or paradoxical sleep amounts were compared between vehicle and UCDA within the same animal, the differences being averaged within the groups. […]

On the set-up of data set [3]: method as in PMID 12236487, PMID 15349909. Particulars: after several month of UDCA therapy (up to 35 mg/kg); cited from earlier work.
Data set [4] concerns GABAA receptors of HDC−/− TMN neurons. The experiment in a line: GABA-evoked whole-cell currents in TMN neurons from HDC−/− mice. Format: cell-based, mouse. To be noted: read-out: IC50 of inhibition of maximal GABA (0.5 mM) responses; adult HDC−/− mice, n = 5. Here is the method:
Recordings from histaminergic neurons in male Wistar rat (22–26 day old) or 30–60 day old mouse (SV129, histidine decarboxylase deficient HDC−/− or their wild type littermates) hypothalamic slices were performed as previously described. Slices were obtained between 9 and 11 a.m. In the beginning of whole-cell voltage clamp recordings TMN neurons were identified with the help of DIC microscopy and electrophysiological criteria as previously described. Inhibitory postsynaptic currents (IPSCs) were evoked by local stimulation through a bipolar stainless-steel stimulating electrode (50 µm; WPI, UK). The stimulation of axonal endings coming to TMN from ventrolateral preoptic area (VLPO) was done as described in [22]. […] Individual neurons were separated by vibrodissociation after brief preincubation with papain from the hypothalamic slices of mice or rats and identified as TMN neurons according to their size and shape. Identification was confirmed post hoc with the single-cell RT-PCR (all data presented in the manuscript were obtained from histidine decarboxylase-expressing neurons), [40]. TMN neurons from HDC−/− mice were identified by the expression of peripherin [16]. Whole-cell voltage-clamp recordings from isolated neurons were done with an EPC-9 amplifier and TIDA for Windows (HEKA, Lambrecht, Germany) at room temperature. Membrane potentials were not corrected for liquid junction potential (5.6 mV, calculated with LJPCalc, Barry, 1994). The intracellular solution was composed of (in mM) 140 KCl, 2 MgCl2, 0.5 CaCl2, 5 EGTA, 2 ATP and 10 HEPES (pH 7.2 adjusted with NaOH). A fast perfusion technique was used for application of ligands and modulators of fast ionotropic receptors, [41]. […] EC50 is the ligand concentration producing a half-maximal response, [ligand] is ligand concentration, and n is the Hill slope. Hill coefficients were obtained from the slope of the log/log plot of the dose-response curves. […] Steady-state amplitudes of the responses were used for the construction of dose-response plots if not mentioned otherwise.

Where [5] appears, read: UDCA 32 mg/kg per os at 7 p.m., vs vehicle.

The term IC50 denotes the concentration that inhibits the measured activity by half.

Values joined by “and” are separate entries in the source; they are usually repeats but may differ in a detail not shown here. Equal values may be shown once.

T1 sequence (P62813 28-455): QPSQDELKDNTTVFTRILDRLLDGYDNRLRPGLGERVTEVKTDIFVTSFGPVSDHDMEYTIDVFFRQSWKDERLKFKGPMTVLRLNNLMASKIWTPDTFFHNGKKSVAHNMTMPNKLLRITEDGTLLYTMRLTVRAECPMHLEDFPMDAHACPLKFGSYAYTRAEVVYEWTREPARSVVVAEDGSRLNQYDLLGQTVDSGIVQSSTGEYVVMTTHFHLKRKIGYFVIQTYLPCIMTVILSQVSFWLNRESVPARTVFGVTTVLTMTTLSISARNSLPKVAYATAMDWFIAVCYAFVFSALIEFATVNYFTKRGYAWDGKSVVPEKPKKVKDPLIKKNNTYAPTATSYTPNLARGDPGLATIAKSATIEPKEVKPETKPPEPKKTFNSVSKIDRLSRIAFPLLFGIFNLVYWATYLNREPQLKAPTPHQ
T1 sequence (P63138 25-474 limits assumed): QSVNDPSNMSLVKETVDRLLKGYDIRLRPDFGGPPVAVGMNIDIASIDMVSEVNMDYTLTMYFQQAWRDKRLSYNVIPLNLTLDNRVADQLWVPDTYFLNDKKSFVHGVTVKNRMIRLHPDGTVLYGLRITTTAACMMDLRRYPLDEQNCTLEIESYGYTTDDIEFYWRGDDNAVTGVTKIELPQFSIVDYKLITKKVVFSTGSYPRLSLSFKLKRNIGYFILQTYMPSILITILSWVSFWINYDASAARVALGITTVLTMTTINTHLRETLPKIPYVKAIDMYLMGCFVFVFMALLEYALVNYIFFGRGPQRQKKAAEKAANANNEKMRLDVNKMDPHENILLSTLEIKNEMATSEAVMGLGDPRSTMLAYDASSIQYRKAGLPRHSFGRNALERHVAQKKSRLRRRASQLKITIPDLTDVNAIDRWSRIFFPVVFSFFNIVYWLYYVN
T1 sequence (P22723 39-474): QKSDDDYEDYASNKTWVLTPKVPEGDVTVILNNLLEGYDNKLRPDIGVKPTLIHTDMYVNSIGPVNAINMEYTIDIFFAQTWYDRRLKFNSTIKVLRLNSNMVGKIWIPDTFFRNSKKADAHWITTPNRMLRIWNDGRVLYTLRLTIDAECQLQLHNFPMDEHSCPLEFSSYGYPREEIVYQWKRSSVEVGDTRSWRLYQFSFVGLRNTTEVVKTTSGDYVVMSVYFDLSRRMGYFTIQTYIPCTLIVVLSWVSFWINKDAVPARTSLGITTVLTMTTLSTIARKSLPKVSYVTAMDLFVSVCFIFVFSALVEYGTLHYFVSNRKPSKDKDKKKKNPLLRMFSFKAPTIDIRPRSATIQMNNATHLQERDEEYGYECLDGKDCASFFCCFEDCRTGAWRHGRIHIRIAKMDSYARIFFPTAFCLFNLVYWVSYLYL
T2 sequence (P62813 28-455 V283S): as the sequence (P62813 28-455) above, with V256S counted along it
T2 sequence (P63138 25-474 limits assumed): as the sequence (P63138 25-474 limits assumed) above
T2 sequence (P22723 39-474): as the sequence (P22723 39-474) above

As to `C[C@H](CCC(=O)O)[C@H]1CC[C@H]2[C@@H]3[C@@H](O)C[C@@H]4C[C@H](O)CC[C@]4(C)[C@H]3CC[C@]12C` [UDCA, ursodeoxycholic acid], the IC50 is 85 µM and 84.7 µM in data set [1] (IC50 of inhibition of GABA currents, maximal GABA, WT); 330 ± 41 µM in data set [2] (n = 4); 90 ± 5 µM in data set [4]. In addition, the “relative amplitude of maximal GABA-responses” value was 47±3 % of control in data set [1] (UDCA 100 µM, n = 7) and 87±1 % of control in data set [2] (UDCA 100 µM, n = 5). In addition, the sleep wake states result in the data set on HDC+/+ mice (32 mg/kg orally at 10 a.m. (quiet period)) is “did not affect”. Further, in the data set with HDC+/+ mice (UDCA 32 mg/kg per os at 7 p.m. (active period), vs vehicle, n = 11), the waking entry is “significantly increased”. For the same compound, the “amount of paradoxical sleep (PS)” value in the data set with HDC+/+ mice (setting [5]) is “decreased”. Moreover, the “amount of slow wave sleep (SWS)” value with HDC+/+ mice (setting [5]) is recorded as “decreased”. Besides, the “share of the total bile acid pool” value in data set [3] is 58–69%.
